Measured values reported in the NIST ThermoML archive (doi:10.1021/je301301j).

Experiment: molar heat capacity at constant pressure; xn = mol fraction of the nth substance listed
Conditions: 313.15 K, Liquid, Flow calorimetry

C=CCCCC [hex-1-ene] + CCCCO
molar heat capacity at constant pressure [J/K/mol]
Conditions	x2 = 0	x2 = 0.1001	x2 = 0.2	x2 = 0.3002	x2 = 0.3999	x2 = 0.5018	x2 = 0.5997	x2 = 0.7002	x2 = 0.7999	x2 = 0.9
100 kPa	188.8	204.1	208	209.8	210.3	205.3	203	200.2	198.3	193.4
5000 kPa	185.9	199.9	204.8	206.6	206.5	202.6	200.6	197.6	195.5	192.5
10000 kPa	183.1	196.1	201.3	203.2	203.8	199.9	197.8	195.2	193.1	190.4
15000 kPa	181.6	193.2	198.7	200.9	201.5	197.5	195.7	194	191.9	188
20000 kPa	179.6	191	196.2	198.2	199.5	194.1	193	192	190.4	186.5
25000 kPa	177.2	188.1	193.4	194.5	197	192.9	191.4	189.4	188.2	185
